Test [1] has as its target 5-HT1 receptor. As to the kind of experiment: Affinity for the 5-HT1 receptor (3H-serotonin binding, calf hippocampus membranes). To be noted: calf hippocampus membrane preparations. As for the experimental part:
The values indicated are data which were determined from receptor binding studies using calf hippocampus membrane preparations. The radiolabelled ligand used for this purpose was ^3 H-serotonin. In the binding tests under 1) and 2), IC50 values are determined which indicate at which concentration of test substance 50% of the binding of the radioligand is displaced. Taking into account the dissociation constants and the concentration of radioligand, the inhibition constants Ki are calculated from this.

In test [2] the target is T1, 5-HT1A receptors (Bos taurus, UniProt F6Q2H9).
T1 construct: measured in calf hippocampus membranes; from tissue; host or cells: calf hippocampus membranes
T1 sequence (F6Q2H9 1-422): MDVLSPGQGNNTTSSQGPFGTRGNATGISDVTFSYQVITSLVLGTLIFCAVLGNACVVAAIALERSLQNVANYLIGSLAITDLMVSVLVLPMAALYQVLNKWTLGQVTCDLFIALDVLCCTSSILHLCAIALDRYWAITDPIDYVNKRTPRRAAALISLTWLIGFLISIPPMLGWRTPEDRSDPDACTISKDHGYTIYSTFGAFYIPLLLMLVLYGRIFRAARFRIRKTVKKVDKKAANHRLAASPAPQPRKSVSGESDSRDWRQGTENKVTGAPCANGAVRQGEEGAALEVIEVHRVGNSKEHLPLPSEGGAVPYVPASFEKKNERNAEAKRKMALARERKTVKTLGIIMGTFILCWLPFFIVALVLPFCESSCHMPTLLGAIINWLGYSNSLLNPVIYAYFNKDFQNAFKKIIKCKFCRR
The test can be described thus: Affinity for the 5-HT1A receptor (3H-ipsapirone binding, calf hippocampus membranes). As for the experimental part: 2.) Affinity for the 5-HT1A receptor [W. U. Dompert et al., Naunyn-Schmiedeberg's Arch Pharmacol. (1985), 328, 467-470].
In this test, the binding of ^3 H-ipsapirone to 5-HT1A receptors is measured in calf hippocampus membranes.
In the binding tests under 1) and 2), IC50 values are determined which indicate at which concentration of test substance 50% of the binding of the radioligand is displaced. Taking into account the dissociation constants and the concentration of radioligand, the inhibition constants Ki are calculated from this.

Test [3] deals with permanent focal cerebral ischaemia (MCA-O). The test can be described thus: Permanent focal cerebral ischaemia (middle cerebral artery occlusion, MCA-O) in rats. The test is classed as in vivo. The settings on record: rat, continuous infusion 4 hours after occlusion, assessed 7 days after operation. An excerpt: Animal model: permanent focal cerebral ischaemia ("middle cerebral artery occlusion"=MCA-O). MCA occlusion in rodents is a widely accepted animal model of stroke. Reference: Bederson, J. B. et al., Stroke, 17:472-476 (1986).
In order to produce permanent focal cerebral ischaemia, the left medial cerebral artery in rats is occluded by electrocoagulation. The resulting infarct volume in cortical (subcortical) regions which are supplied by the medial cerebral artery is used as a measure of the extent of the stroke-induced neuronal damage. Administration of substance: after occlusion as a continuous i.v. infusion (4 hours) of the test substance, beginning directly after operation. The animals are sacrificed for assessment 7 days after operation.

Where a name gives a salt, the structure may show the parent alone.

In general, Ki refers to a dissociation constant, usually derived from enzyme kinetics or from competition with a known ligand. The compound `CC(C)(Cl)COc1cccc2c1OC(CNCCCCN1C(=O)c3ccccc3S1(=O)=O)CC2` (racemic) [Example 4] returned an inhibition constant (Ki) in test [1] of 2.8 nM.

On to `CC1(C)Cc2ccc3c(c2O1)OC(CNCCCCN1C(=O)c2ccccc2S1(=O)=O)CC3` (racemic) [Example 5], for which the affinity in test [1] corresponds to a Ki of 0.5 nM. Against the preceding compound, the Ki is about 5.6-fold lower.

Take `CC(C)Oc1cccc2c1OC(CNCCCCN1C(=O)c3ccccc3S1(=O)=O)CC2` (single isomer, unassigned) [Example 2]: the affinity in test [2] corresponds to a Ki of 0.5 nM. The “% Reduction of the infarct volume” value in test [3] (0.001 mg/kg i.v.) turned out to be 36%; in test [3] (0.01 mg/kg i.v.), 48%; in test [3] (0.1 mg/kg i.v.) it was 32%.

For the compound `CC(C)(Cl)COc1cccc2c1OC(CNCCCCN1C(=O)c3ccccc3S1(=O)=O)CC2` (single isomer, unassigned) [Example 3], the Ki in test [2] amounted to 1.8 nM. The “% Reduction of the infarct volume” value in test [3] (0.001 mg/kg i.v.) turned out to be 37%; in test [3] (0.003 mg/kg i.v.), 34%; in test [3] (0.01 mg/kg i.v.) it was 47%.

In turn, `CC1(C)Cc2ccc3c(c2O1)OC(CNCCCCN1C(=O)c2ccccc2S1(=O)=O)CC3` (single isomer, unassigned) [Example 6] gave a Ki in test [2] of 0.9 nM. Moreover, the “% Reduction of the infarct volume” value was found to be 41% in test [3] (0.001 mg/kg i.v.), 41% in test [3] (0.01 mg/kg i.v.) and 38% in test [3] (0.1 mg/kg i.v.).

As for `CC(C)Oc1cccc2c1OC(CNCCCCN1C(=O)c3ccccc3S1(=O)=O)CC2` (stereo not drawn) [Example 1, 2-(N-(4-(1,1-Dioxido-3-oxo-2,3-dihydro-benzisothiazol-2-yl)butyl)amino)methyl-8-isopropoxy-chroman oxalate], the inhibitory constant (Ki) in test [1] was found to be 1.1 nM.
